Values joined by “and” are separate entries in the source; they are usually repeats but may differ in a detail not shown here. Identical values can stand only once. After the bases stand the sugars from the 5' end (letter, count) and the backbone: PS all phosphorothioate, else s phosphorothioate and o phosphodiester by linkage. Methylation of C is not given here. e = 2'-O-(2-methoxyethyl) (MOE); k = constrained ethyl (cEt); d = 2'-deoxy (DNA)

This series concerns the target SOD1. The settings on record: ASO.

Where the note is “HepG2, 5 µM”, “GCGGCCAATGATGCAATGGT (sugars e5 d10 e5, PS)” came in with a target mRNA inhibition of 13%.
“CTACATCCAAGGGAATG (sugars e3 k2 d7 k2 e3, PS)” showed a target mRNA inhibition (HepG2, 3 µM) of 40%.
As for “CGCCCTTCAGCACGCAC (sugars e2 k2 d9 k2 e2, PS)”, the target mRNA inhibition reads like this: (HepG2, 0.1875 µM) 12%; (HepG2, 0.75 µM) 47%; (HepG2, 3 µM) 79%; (HepG2, 4 µM) 73%; (HepG2, 12 µM) 94%.
In turn, “CAAAATACAGGTCATTG (sugars e2 k2 d8 k2 e3, PS)” returned a target mRNA inhibition (HepG2, 5 µM) of 44%.
The same measure, in the same setting: as for “GGCTTGAATGACAAAGA (sugars e2 k2 d8 k2 e3, PS)”, the figure is 54%.
Same read-out and setting: next, “AATAAGTGCCATACAGG (sugars e2 k2 d9 k2 e2, PS)”: 36%.
For the sequence “ATGTTTATTGGGCGATC (sugars e2 k2 d8 k2 e3, PS)”, the target mRNA inhibition reads like this: (HepG2, 0.1875 µM) 15%; (HepG2, 0.75 µM) 36%; (HepG2, 3 µM) 79%; (HepG2, 4 µM) 76%; (HepG2, 12 µM) 95%.
“TTCTCACTACAGGTACT (sugars e2 k2 d8 k2 e3, PS)” registered a target mRNA inhibition (HepG2, 5 µM) of 26%.
Consider “CACCTTCACTGGTCCAT (sugars e3 k2 d7 k2 e3, PS)”, for which the target mRNA inhibition is, setting by setting: (HepG2, 0.1875 µM) 19%; (HepG2, 0.75 µM) 39%; (HepG2, 3 µM) 53% and 69%; (HepG2, 12 µM) 88%.
Consider “TTATTCACAGGCTTGAA (sugars e2 k2 d8 k2 e3, PS)”, for which the target mRNA inhibition (HepG2, 5 µM) stood at 26%.
Turning to “CTTTCCTTCTGCTCGAA (sugars e3 k2 d7 k2 e3, PS)”, the target mRNA inhibition (HepG2, 3 µM) amounted to 0%.
As to “GGCGATCCCAATTACACCAC (sugars e6 d8 e6, linkages s1 o3 s10 o3 s2)”, the target mRNA inhibition came out at 7% (A431, 0.062 µM); 0% (A431, 0.185 µM); 0% (A431, 0.556 µM); 23% (A431, 1.667 µM); 14% (A431, 5 µM); 6% (A431, 15 µM). Besides, the target mRNA inhibition is 0% (SH-SY5Y, 0.062 µM); 0% (SH-SY5Y, 0.185 µM); 8% (SH-SY5Y, 0.556 µM); 23% (SH-SY5Y, 1.667 µM); 49% (SH-SY5Y, 5 µM); 66% (SH-SY5Y, 15 µM).
“TCACAGGCTTGAATGAC (sugars e2 k2 d8 k2 e3, PS)” returned a target mRNA inhibition (HepG2, 5 µM) of 28%.
On the same count and under the same terms, as for “GCCATACAGGGTTTTTA (sugars e2 k2 d8 k2 e3, PS)”, the figure is 13%.
“ACACCTTCACTGGTCCATTA (sugars e5 d10 e5, linkages s1 o3 s11 o3 s1)”: the target mRNA inhibition is, setting by setting: (A431, 0.12 µM) 5%; (A431, 0.6 µM) 4%; (A431, 3 µM) 4%; (A431, 15 µM) 10%; (HepG2, 2 µM) 50% and 36% and 39%.
Where the note is “HepG2, 5 µM”, “TCACTACAGGTACTTTA (sugars e2 k2 d9 k2 e2, PS)” displayed a target mRNA inhibition of 35%.
With “TGCCTCTCTTCATCCTTTGG (sugars e5 d10 e5, PS)”, where the note is “HepG2, 3 µM”, the target mRNA inhibition came out at 32%.
Take “CAAAATACAGGTCATTG (sugars e2 k2 d9 k2 e2, PS)”: the target mRNA inhibition (HepG2, 5 µM) was 56%.
“GATTTAAGTCTGGCAAA (sugars e2 k2 d8 k2 e3, PS)” yielded a target mRNA inhibition (HepG2, 5 µM) of 19%.
In turn, “ACTGGTCCATTACTTTC (sugars e3 k2 d7 k2 e3, PS)” showed a target mRNA inhibition (HepG2, 3 µM) of 14%.
On to “CAAGCCAAACGACTTCCAGC (sugars e5 d10 e5, PS)”, for which the target mRNA inhibition by setting is: (HepG2, 0.1875 µM) 9%; (HepG2, 0.75 µM) 27%; (HepG2, 3 µM) 59%; (HepG2, 5 µM) 54%; (HepG2, 12 µM) 89%.
On to “TTAATGTTTATCAGGATA (sugars e5 d8 e5, linkages s1 o3 s9 o2 s2)”, for which the target mRNA inhibition (A431, 0.12 µM) amounted to 18%; the target mRNA inhibition (A431, 0.6 µM) turned out to be 7%; the target mRNA inhibition (A431, 3 µM) amounted to 11%; the target mRNA inhibition (A431, 15 µM) stood at 9%; the target mRNA inhibition (HepG2, 0.222 µM) was determined as 0%; the target mRNA inhibition (HepG2, 0.667 µM) stood at 17%. This sequence also returned a target mRNA inhibition (HepG2, 2 µM) of 47% and a target mRNA inhibition (HepG2, 6 µM) of 72%.
Consider “GGCGATCCCAATTACAC (sugars e2 k2 d8 k2 e3, PS)”, for which, for the setting “HepG2, 4 µM”, the target mRNA inhibition was found to be 33%.
“ATGCAGGCCTTCAGTCA (sugars e3 k2 d7 k2 e3, PS)” showed a target mRNA inhibition (HepG2, 3 µM) of 37%.
Under “HepG2, 5 µM”, “TTAATACCCATCTGTGA (sugars e2 k2 d8 k2 e3, PS)” returned a target mRNA inhibition of 28%.
Still for that read-out and setting: next, “AAATCTTCCAAGTGATC (sugars e2 k2 d8 k2 e3, PS)”: 46%.
In the case of “GGAATGTTTATTGGGCG (sugars e2 k2 d8 k2 e3, PS)”, where the note is “HepG2, 4 µM”, the target mRNA inhibition turned out to be 37%.
As to “CAGTGTTTAATGTTTA (sugars ekddddddddekekee, linkages s1 o1 s8 o3 s2)”, the target mRNA inhibition runs as follows: (A431, 0.12 µM) 8%; (A431, 0.6 µM) 26%; (A431, 3 µM) 57%; (A431, 15 µM) 76%; (HepG2, 0.222 µM) 54%; (HepG2, 0.667 µM) 79%. The target mRNA inhibition reads like this: (HepG2, 2 µM) 84%; (HepG2, 6 µM) 88%.
Turning to “GCTTCCCCACACCTTCACTG (sugars e5 d10 e5, linkages s1 o3 s11 o3 s1)”, the target mRNA inhibition is 0% (A431, 0.12 µM); 0% (A431, 0.6 µM); 11% (A431, 3 µM); 0% (A431, 15 µM); 14% (HepG2, 0.222 µM); 32% (HepG2, 0.667 µM). This sequence yielded a target mRNA inhibition (HepG2, 2 µM) of 79% and a target mRNA inhibition (HepG2, 6 µM) of 55%.
The sequence “ATTTAAGTCTGGCAAAATAC (sugars e5 d10 e5, PS)” showed a target mRNA inhibition (HepG2, 5 µM) of 16%.
The same measure, in the same setting: next, “CAGGCCTTCAGTCAGTCCTT (sugars e5 d10 e5, PS)”: 56% and 51%.
On the same count and under the same terms, next, “AATCTTCCAAGTGATCA (sugars e2 k2 d8 k2 e3, PS)”: 19%.
Still for that read-out and setting: next, “ACCCATCTGTGATTTAA (sugars e2 k2 d8 k2 e3, PS)”: 33%.
Under “HepG2, 4 µM”, “CTTCTGCTCGAAATTGATGA (sugars e5 d10 e5, PS)” gave a target mRNA inhibition of 11%.
Regarding “TGTGATTTAAGTCTGGC (sugars e2 k2 d9 k2 e2, PS)”, under “HepG2, 5 µM”, the target mRNA inhibition was 58%.
The same measure, in the same setting: next, “GTTTCTCACTACAGGTACTT (sugars e5 d10 e5, PS)”: 30%.
Regarding “ATACAGGGTTTTTATTC (sugars e3 k2 d7 k2 e3, PS)”, the target mRNA inhibition (HepG2, 3 µM) came out at 3%.
Still for that read-out and setting: as for “GGGCCTCAGACTACATC (sugars e3 k2 d7 k2 e3, PS)”, the figure is 24%.
“GGCCAGACCTCCGCGCCTCG (sugars e5 d10 e5, PS)” displayed a target mRNA inhibition (HepG2, 4 µM) of 49%.
For “TCACTACAGGTACTTTA (sugars e2 k2 d8 k2 e3, PS)”, under “HepG2, 5 µM”, the target mRNA inhibition stood at 27%.
As for “CCCATCTGTGATTTAAGTCT (sugars e5 d10 e5, PS)”, the target mRNA inhibition (HepG2, 5 µM) was 41%.
In turn, “CTGGTTCCGAGGACTGCAAC (sugars e5 d10 e5, PS)” gave a target mRNA inhibition (HepG2, 4 µM) of 51%.
In the case of “TTCCCCACACCTTCAC (sugars kekeddddddddekek, linkages s1 o3 s8 o1 s2)”, the target mRNA inhibition runs as follows: (A431, 0.12 µM) 4%; (A431, 0.6 µM) 12%; (A431, 3 µM) 5%; (A431, 15 µM) 12%; (HepG2, 0.222 µM) 6%; (HepG2, 0.667 µM) 16%. The target mRNA inhibition came out at 20% (HepG2, 2 µM) and 59% (HepG2, 6 µM).
For “GCTTTTTCATGGACCAC (sugars e3 k2 d7 k2 e3, PS)”, the target mRNA inhibition (HepG2, 3 µM) is 71%.
In turn, “TCACAGGCTTGAATGAC (sugars e2 k2 d9 k2 e2, PS)” displayed a target mRNA inhibition (HepG2, 5 µM) of 46%.
On to “CCCCGTCTCCGCGACTACTT (sugars e5 d10 e5, PS)”, for which, where the note is “HepG2, 4 µM”, the target mRNA inhibition worked out at 16%.
As for “ATCTGTGATTTAAGTCT (sugars e2 k2 d9 k2 e2, PS)”, under “HepG2, 5 µM”, the target mRNA inhibition amounted to 37%.
Still for that read-out and setting: next, “GTCACACAATTACACTT (sugars e2 k2 d8 k2 e3, PS)”: 28%.
On to “TCTTCATTTCCACCTTT (sugars e3 k2 d7 k2 e3, PS)”, for which the target mRNA inhibition (HepG2, 3 µM) was found to be 31%.
For the setting “HepG2, 5 µM”, “AGGTACTTTAAAGCAAC (sugars e2 k2 d9 k2 e2, PS)” yielded a target mRNA inhibition of 42%.
The sequence “CAGTGTTTAATGTTTATC (sugars e5 d8 e5, linkages s1 o3 s9 o2 s2)” gave a target mRNA inhibition (A431, 0.12 µM) of 0%; a target mRNA inhibition (A431, 0.6 µM) of 8%; a target mRNA inhibition (A431, 3 µM) of 39%; a target mRNA inhibition (A431, 15 µM) of 52%; a target mRNA inhibition (HepG2, 0.222 µM) of 21%; a target mRNA inhibition (HepG2, 0.667 µM) of 47%. This sequence also displayed a target mRNA inhibition (HepG2, 2 µM) of 64% and a target mRNA inhibition (HepG2, 6 µM) of 84%.
“AATGCTTCCCCACACCT (sugars e3 k2 d7 k2 e3, PS)” had a target mRNA inhibition (HepG2, 3 µM) of 35%.
The sequence “GTGATCATAAATCAGTTTCT (sugars e5 d10 e5, PS)” registered a target mRNA inhibition (HepG2, 5 µM) of 37%.
The same measure, in the same setting: next, “ACAGGTACTTTAAAGCA (sugars e2 k2 d8 k2 e3, PS)”: 14%.
“TGTTTATCAGGATACATTTC (sugars e5 d10 e5, PS)” displayed a target mRNA inhibition (HepG2, 5 µM) of 52%.
Under “HepG2, 3 µM”, “CTGGTCCATTACTTTCC (sugars e3 k2 d7 k2 e3, PS)” had a target mRNA inhibition of 11%.
The same measure, in the same setting: next, “CCATGCAGGCCTTCAGT (sugars e3 k2 d7 k2 e3, PS)”: 21%; “TCGCCCTTCAGCACGCA (sugars e3 k2 d7 k2 e3, PS)”: 31%.

For the origin of these results see the OligoGym collection.
